Converted amounts (≈) assume the structure as drawn. Like-named read-outs stand apart in the source and are kept apart here.
Experiments:
Experiment in all cases: MIC, NCCLS broth microdilution
Type in all cases: cell-based
E. faecalis A7789 Line-R = conditions: Enterococcus faecalis, A7789LINER
Procedure: (§1) The efficacy of ramoplanin was tested against recently isolated VRE that are resistant to linezolid and quinupristin/dalfopristin. The culture media containing ramoplanin was supplemented with 0.02% bovine serum albumin (BSA) to prevent ramoplanin binding to the plastic. MIC values were determined in both cation-adjusted Mueller-Hinton broth (CAMHB) and trypticase soy broth (TSB) by the National Committee for Clinical Laboratory Standards (NCCLS) broth microdilution method. Macromolecular biosynthesis experiments were done by following the incorporation of carbon-14-labeled N-acetylglucosamine, acetic acid, amino acids, uridine, and thymidine into peptidoglycan, fatty acid, protein, RNA and DNA, respectively.

E. faecalis ATCC29212 = tested on: E. faecalis ATCC29212
Procedure: as §1

E. faecalis ATCC51299 = conditions: Enterococcus faecalis, ATCC51299, E. faecalis ATCC51299, read-out: MIC
Procedure: as §1

E. faecium 1836 = conditions: Enterococcus faecium, 1836, E. faecium 1836, read-out: MIC
Procedure: as §1

E. faecium A-5960 Line-R = conditions: Enterococcus faecium, A5960LINER
Procedure: as §1

E. faecium A2735 Syn-R = conditions: Enterococcus faecium, A2735SYNR, read-out: MIC
Procedure: as §1

E. faecium A5959 Line-R = conditions: Enterococcus faecium, A5959LINER
Procedure: as §1

E. faecium A6343 Line-R = conditions: Enterococcus faecium, A6343LINER, read-out: MIC
Procedure: as §1

E. faecium A6345 Line-R = conditions: for MIC: Enterococcus faecium, A6345LINER, E. faecium A6345 Line-R, read-out: MIC
Procedure: as §1

E. faecium A6349 Line-R = conditions: Enterococcus faecium, A6349LINER, read-out: MIC
Procedure: as §1

E. faecium UA210 = conditions: Enterococcus faecium, UA210, E. faecium UA210, read-out: MIC
Procedure: as §1

E. faecium UA392 = conditions: Enterococcus faecium, UA392, E. faecium UA392, read-out: MIC
Procedure: as §1

E. gallinarum UA604 = conditions: Enterococcus gallinarum, GALLINARUM, read-out: MIC
Procedure: as §1

S. aureus ATCC12600 MRSA = conditions: Staphylococcus aureus, read-out: MIC
Procedure: as §1

S. aureus ATCC27659 MSSA = conditions: Staphylococcus aureus, read-out: MIC
Procedure: as §1

S. aureus ATCC43300 MRSA = conditions: Staphylococcus aureus, ATCC 43300 / MRSA / VISA, S. aureus ATCC43300 MRSA/VISA, read-out: MIC
Procedure: as §1

[1] = tested on: S. aureus ATCC700699 MRSA/VISA; conditions: Staphylococcus aureus, S. aureus ATCC700699 MRSA/VISA, read-out: MIC
Procedure: as §1

S. epidermidis ATCC12228 = conditions: Staphylococcus epidermidis, ATCC12228, S. epidermidis ATCC12228, read-out: MIC
Procedure: as §1

S. epidermidis ATCC14990 = conditions: Staphylococcus epidermidis, ATCC14990, S. epidermidis ATCC14990, read-out: MIC
Procedure: as §1

S. epidermidis ATCC35983 = conditions: Staphylococcus epidermidis, ATCC35983, S. epidermidis ATCC35983, read-out: MIC
Procedure: as §1

S. epidermidis ATCC18972 = conditions: Staphylococcus epidermidis, ATCC18972, S. epidermidis ATCC18972, read-out: MIC
S. epidermidis ATCC35984 = conditions: Staphylococcus epidermidis, ATCC35984, S. epidermidis ATCC35984, read-out: MIC
[2] = Enterococcus faecalis, ATCC29212, E. faecalis ATCC29212, Table 6, 1st, read-out: MIC
[3] = Enterococcus faecalis, ATCC29212, E. faecalis ATCC29212, Table 6, 2nd, read-out: MIC

CC(=O)NC[C@H]1CN(c2ccc(N3CCOCC3)c(F)c2)C(=O)O1 [Linezolid]
MIC (E. faecalis A7789 Line-R; Table 6, 1st): > 16 µg/mL | MIC (E. faecalis A7789 Line-R; Table 6, 2nd): 32 µg/mL (≈ 94.9 µM) | MIC (E. faecalis ATCC29212; [2]): 4 µg/mL (≈ 11.9 µM) | MIC (E. faecalis ATCC29212; [3]): 2 µg/mL (≈ 5.93 µM) | MIC (E. faecalis ATCC51299; Table 6, 1st): 2 µg/mL (≈ 5.93 µM) | MIC (E. faecalis ATCC51299; Table 6, 2nd): 2 µg/mL (≈ 5.93 µM) | MIC (E. faecium 1836; Table 6, 1st): 4 µg/mL (≈ 11.9 µM) | MIC (E. faecium 1836; Table 6, 2nd): 2 µg/mL (≈ 5.93 µM) | MIC (E. faecium A-5960 Line-R; Table 6, 1st): > 16 µg/mL | MIC (E. faecium A-5960 Line-R; Table 6, 2nd): 32 µg/mL (≈ 94.9 µM) | MIC (E. faecium A2735 Syn-R; Table 6, 1st): 4 µg/mL (≈ 11.9 µM) | MIC (E. faecium A2735 Syn-R; Table 6, 2nd): 2 µg/mL (≈ 5.93 µM) | MIC (E. faecium A5959 Line-R; Table 6, 1st): > 16 µg/mL | MIC (E. faecium A5959 Line-R; Table 6, 2nd): 16 µg/mL (≈ 47.4 µM) | MIC (E. faecium A6343 Line-R; Table 6, 1st): 8 µg/mL (≈ 23.7 µM) | MIC (E. faecium A6343 Line-R; Table 6, 2nd): 8 µg/mL (≈ 23.7 µM) | reference MIC for strains used for killing curve (E. faecium A6345 Line-R; E. faecium A6345 Line-R. as printed, second row of Table 3): 16 µg/mL | reference MIC for strains used for killing curve (E. faecium A6345 Line-R; E. faecium A6345 Line-R., first row of Table 3): 16 to 32 µg/mL | MIC (E. faecium A6345 Line-R; Table 6, 1st): > 16 µg/mL | MIC (E. faecium A6345 Line-R; Table 6, 2nd): 32 µg/mL (≈ 94.9 µM) | MIC (E. faecium A6349 Line-R; Table 6, 1st): 16 µg/mL (≈ 47.4 µM) | MIC (E. faecium A6349 Line-R; Table 6, 2nd): 16 µg/mL (≈ 47.4 µM) | MIC (E. faecium UA210; Table 6, 1st): 4 µg/mL (≈ 11.9 µM) | MIC (E. faecium UA210; Table 6, 2nd): 2 µg/mL (≈ 5.93 µM) | MIC (E. faecium UA392; Table 6, 1st): 4 µg/mL (≈ 11.9 µM) | MIC (E. faecium UA392; Table 6, 2nd): 2 µg/mL (≈ 5.93 µM) | MIC (E. gallinarum UA604; Table 6, 1st): 4 µg/mL (≈ 11.9 µM) | MIC (E. gallinarum UA604; Table 6, 2nd): 2 µg/mL (≈ 5.93 µM) | MIC (S. aureus ATCC12600 MRSA; Table 6, 1st): 4 µg/mL (≈ 11.9 µM) | MIC (S. aureus ATCC12600 MRSA; Table 6, 2nd): 2 µg/mL (≈ 5.93 µM) | MIC (S. aureus ATCC27659 MSSA; Table 6, 1st): 4 µg/mL (≈ 11.9 µM) | MIC (S. aureus ATCC27659 MSSA; Table 6, 2nd): 2 µg/mL (≈ 5.93 µM) | MIC (S. aureus ATCC43300 MRSA; Table 6, 1st): 4 µg/mL (≈ 11.9 µM) | MIC (S. aureus ATCC43300 MRSA; Table 6, 2nd): 2 µg/mL (≈ 5.93 µM) | MIC ([1]; Table 6, 1st): 4 µg/mL (≈ 11.9 µM) | MIC ([1]; Table 6, 2nd): 2 µg/mL (≈ 5.93 µM) | MIC (S. epidermidis ATCC12228; Table 6, 1st): 2 µg/mL (≈ 5.93 µM) | MIC (S. epidermidis ATCC12228; Table 6, 2nd): 2 µg/mL (≈ 5.93 µM) | MIC (S. epidermidis ATCC14990; Table 6, 1st): 4 µg/mL (≈ 11.9 µM) | MIC (S. epidermidis ATCC14990; Table 6, 2nd): 2 µg/mL (≈ 5.93 µM) | MIC (S. epidermidis ATCC35983; Table 6, 1st): 2 µg/mL (≈ 5.93 µM) | MIC (S. epidermidis ATCC35983; Table 6, 2nd): 2 µg/mL (≈ 5.93 µM) | MIC (S. epidermidis ATCC18972; Table 6, 1st): 2 µg/mL (≈ 5.93 µM) | MIC (S. epidermidis ATCC18972; Table 6, 2nd): 1 µg/mL (≈ 2.96 µM) | MIC (S. epidermidis ATCC35984; Table 6, 1st): 4 µg/mL (≈ 11.9 µM) | MIC (S. epidermidis ATCC35984; Table 6, 2nd): 2 µg/mL (≈ 5.93 µM)

COc1cccc(OC)c1C(=O)N[C@@H]1C(=O)N2[C@@H]1SC(C)(C)[C@@H]2C(=O)O [Meth., methicillin]
MIC (E. faecalis A7789 Line-R; Table 6, 1st): > 16 µg/mL | MIC (E. faecalis A7789 Line-R; Table 6, 2nd): 32 µg/mL (≈ 84.1 µM) | MIC (E. faecalis ATCC29212; E. faecalis ATCC29212, Table 6, 1st): 16 µg/mL (≈ 42.1 µM) | MIC (E. faecalis ATCC29212; [2]): > 16 µg/mL | MIC (E. faecalis ATCC29212; [3]): 32 µg/mL (≈ 84.1 µM) | MIC (E. faecalis ATCC51299; Table 6, 1st): > 16 µg/mL | MIC (E. faecalis ATCC51299; Table 6, 2nd): 32 µg/mL (≈ 84.1 µM) | MIC (E. faecium 1836; Table 6, 1st): > 16 µg/mL | MIC (E. faecium 1836; Table 6, 2nd): > 64 µg/mL | MIC (E. faecium A-5960 Line-R; Table 6, 1st): > 16 µg/mL | MIC (E. faecium A-5960 Line-R; Table 6, 2nd): > 64 µg/mL | MIC (E. faecium A2735 Syn-R; Table 6, 1st): > 16 µg/mL | MIC (E. faecium A2735 Syn-R; Table 6, 2nd): > 64 µg/mL | MIC (E. faecium A5959 Line-R; Table 6, 1st): > 16 µg/mL | MIC (E. faecium A5959 Line-R; Table 6, 2nd): > 64 µg/mL | MIC (E. faecium A6343 Line-R; Table 6, 1st): > 16 µg/mL | MIC (E. faecium A6343 Line-R; Table 6, 2nd): 64 µg/mL (≈ 168 µM) | MIC (E. faecium A6345 Line-R; Table 6, 1st): > 16 µg/mL | MIC (E. faecium A6345 Line-R; Table 6, 2nd): > 64 µg/mL | MIC (E. faecium A6349 Line-R; Table 6, 1st): > 16 µg/mL | MIC (E. faecium A6349 Line-R; Table 6, 2nd): > 64 µg/mL | MIC (E. faecium UA210; Table 6, 1st): > 16 µg/mL | MIC (E. faecium UA210; Table 6, 2nd): > 64 µg/mL | MIC (E. faecium UA392; Table 6, 1st): > 16 µg/mL | MIC (E. faecium UA392; Table 6, 2nd): > 64 µg/mL | MIC (E. gallinarum UA604; Table 6, 1st): > 16 µg/mL | MIC (E. gallinarum UA604; Table 6, 2nd): > 64 µg/mL | MIC (S. aureus ATCC12600 MRSA; Table 6, 1st): 2 µg/mL (≈ 5.26 µM) | MIC (S. aureus ATCC12600 MRSA; Table 6, 2nd): > 64 µg/mL | MIC (S. aureus ATCC27659 MSSA; Table 6, 1st): 2 µg/mL (≈ 5.26 µM) | MIC (S. aureus ATCC27659 MSSA; Table 6, 2nd): 2 µg/mL (≈ 5.26 µM) | MIC (S. aureus ATCC43300 MRSA; Table 6, 1st): 8 µg/mL (≈ 21 µM) | MIC (S. aureus ATCC43300 MRSA; Table 6, 2nd): 8 µg/mL (≈ 21 µM) | MIC ([1]; Table 6, 1st): > 16 µg/mL | MIC ([1]; Table 6, 2nd): > 64 µg/mL | MIC (S. epidermidis ATCC12228; Table 6, 1st): 1 µg/mL (≈ 2.63 µM) | MIC (S. epidermidis ATCC12228; Table 6, 2nd): 2 µg/mL (≈ 5.26 µM) | MIC (S. epidermidis ATCC14990; Table 6, 1st): 1 µg/mL (≈ 2.63 µM) | MIC (S. epidermidis ATCC14990; Table 6, 2nd): 1 µg/mL (≈ 2.63 µM) | MIC (S. epidermidis ATCC35983; Table 6, 1st): > 16 µg/mL | MIC (S. epidermidis ATCC35983; Table 6, 2nd): 64 µg/mL (≈ 168 µM) | MIC (S. epidermidis ATCC18972; Table 6, 1st): > 16 µg/mL | MIC (S. epidermidis ATCC18972; Table 6, 2nd): 64 µg/mL (≈ 168 µM) | MIC (S. epidermidis ATCC35984; Table 6, 1st): > 16 µg/mL | MIC (S. epidermidis ATCC35984; Table 6, 2nd): > 64 µg/mL
